# Results reported in patent US20170029451A1, “BRANCHED CHAIN ACYCLIC NUCLEOSIDE PHOSPHONATE ESTERS AND METHODS OF SYNTHESIS AND USES THEREOF” (CHIMERIX, INC., priority 2013, published 2017).
# Read-outs that look alike come from different tables or passages of the source.
# How the values were obtained:
# in vitro = conditions: human
# [1] = system: HCMV UL54 resistant mutant 4955^R; experiment: microbe, parasite or virus in culture; assay type: cell-based, Human Cytomegalovirus (HCMV); conditions: Human betaherpesvirus 5, Fibroblast
# HCV = HCV antiviral activity in Huh cells; assay type: cell-based; conditions: Hepatitis C virus, cell line Huh
# Ebola = experiment: microbe, parasite or virus in culture; assay type: cell-based, ebola virus; conditions: Zaire ebolavirus
# HBV = HBV antiviral activity in 2.2.15 cells; assay type: cell-based; conditions: Hepatitis B virus, cell line 2.2.15
# [2] = Cytotoxicity (CC50) in MRC-5 cells; assay type: cell-based; conditions: human, cell line MRC5 (HCMV row)
# Experimental: Costar 96-well tissue culture plates were seeded with 20,000 MRC-5 cells (ATCC)/well in EMEM (ATCC, Cat 30-2003) containing 2% Hyclone Standard Fetal Bovine Serum (FBS, Cat 5H30088.03) and 1% Hyclone Penicillin and Streptomycin (Cat SV30010). Outer wells were not used to minimize the edge-effect produced by extended incubations. Serial dilutions of test compounds were added to the cells and plates were incubated for 7 days at 37° C. in 5% CO2. After 7 days of incubation 40 μL of Cell Titer 96® Aqueous MTS Reagent (Promega, G111) was added as directed by manufacturer to the 200 iut media in each well and incubated at 37° C. until the untreated-cell controls developed an 490 nm absorbance between 1.1 and 1.8. The final absorbance readings were read using a BioTek Synergy 2, and Gen 5 software (BioTek Instruments, Inc.) was used to calculate the concentration which inhibited MRC-5 cells by 50% (CC50).
# HCMV (Strain AD169) = experiment: Plaque reduction assay, HCMV AD169 in human foreskin fibroblast cells; assay type: cell-based, Human Cytomegalovirus (HCMV); conditions: for EC50: Human betaherpesvirus 5, AD169, Fibroblast
# MCMV = MCMV antiviral activity in MEF cells; assay type: cell-based; conditions: Virus MCMV, cell line MEF
# HHV-8 = HHV-8 antiviral activity in BCBL-1 cells; assay type: cell-based, human herpes virus 8 (HHV-8); conditions: Homo sapiens, BCBL1; Virus HHV-8, cell line BCBL-1
# [3] = system: Human Cytomegalovirus (HCMV); experiment: HCMV EC50 in MRC-5 cells (qPCR of intracellular CMV DNA); assay type: cell-based
# Experimental: Costar 96-well tissue culture plates were seeded with 20,000 MRC-5 cells/well in EMEM containing 2% Hyclone Standard Fetal Bovine Serum and 1% Hyclone Penicillin and Streptomycin. Outer wells were not used to minimize the edge-effect produced by extended incubations. Cells were inoculated with HCMV at an MOI of 0.01. Serial dilutions of test compounds were added to the cells and plates were incubated for 7 days at 37° C. in 5% CO2. […] Culture medium was gently removed from infected cells after the 7-day incubation. The cells were rinsed twice with ice-cold PBS, and then freeze/thawed once. Each well was incubated with 200 μL lysis buffer for 2 hours at 55° C. Lysis buffer included 0.5 mg/mL protease K, 50 mM KCl, 10 mM Tris-Cl pH 8.0, 2.5 mM MgCl2, 0.45% IGEPAL, and 0.45% Tween-20 dissolved in DEPC-treated water. Intracellular CMV DNA was measured by quantitative polymerase chain reaction (qPCR) using forward and reverse HCMV PCR primers, and a FAM-labeled probe. Absolute quantitation of viral copy number was performed using a standard curve with dilutions of a HCMV DNA amplicon containing sequences homologous to the amplified fragment. The following qPCR amplification conditions were used: 1 cycle at 95° C. for 10 minutes, followed by 45 cycles of 95° C. for 15 seconds and 60° C. for 60 seconds. The qPCR reactions were performed using an Applied Biosystems 7500 real Time PCR System. Gen 5 software (BioTek Instruments, Inc.) was used to calculate the concentration which inhibited the viral DNA levels of HCMV-infected MRC-5 cells by 50% (EC50).
# [4] = system: HCMV UL54 resistant mutant D542E (HDP-CDV^R); experiment: microbe, parasite or virus in culture; assay type: cell-based, Human Cytomegalovirus (HCMV)
smiles,measurement,setting,value
CC(C)CCCCCCCCCCCCCCOCCCOP(=O)(O)COC(CO)Cn1ccc(=O)[nH]c1=O (centres unmarked) [Compound 12],CC50,"in vitro; CPXV CC50, μM, Human Foreskin Fibroblast Cells, parallel to CPXV assay",> 10 µM
same,CC50,"in vitro; HCMV CC50, μM",> 50 µM
same,CC50,"in vitro; HSV-1 CC50, μM",> 50 µM
same,EC50,"[1]; read-out: EC50 μM, Virus 4955^R, human foreskin fibroblast cells",~0.143 µM
same,EC90,[1]; read-out: EC90 μM,0.372 µM
same,EC50,HCV,570 nM
same,EC50,Ebola,1000 nM
same,EC50,HBV,3000 nM
same,CC50 at 7 days,[2],50000 nM
same,EC50,"HCMV (Strain AD169); Strain AD169, human foreskin fibroblast cells, read-out: HCMV EC50",52 nM
same,EC50,"HCMV (Strain AD169); Virus AD169, human foreskin fibroblast cells (Table 3), read-out: EC50",~52 nM
same,EC90,"HCMV (Strain AD169); Human betaherpesvirus 5, Virus AD169, human foreskin fibroblast cells",150 nM
same,EC50,MCMV,1600 nM
same,EC50,HHV-8,< 80 nM
same,EC50,"[3]; Human betaherpesvirus 5, MRC5, HCMV in MRC-5 cells (Table 7), read-out: CMV EC50",27 nM
same,EC50,"[3]; Human betaherpesvirus 5, MRC5, Mean XC50 (Table 9), read-out: HCMV EC50",17 nM
same,EC50,"[3]; Human betaherpesvirus 5, Virus HCMV, cell line MRC5 (Table 8), read-out: EC50",17 nM
same,EC50,"[4]; Human betaherpesvirus 5, Fibroblast, read-out: EC50 μM, Virus D542E (HDP-CDV^R), human foreskin fibroblast cells",~5.41 µM
same,EC90,"[4]; Human betaherpesvirus 5, Fibroblast, read-out: EC90 μM",> 10 µM
same,efficacy on UL54 HCMV resistant variants,[4]; effect of mutations in UL54 which reduce efficacy for HDP-CDV,reduced
